According to patent US20100248321A1, “SURFACTANT AMENDMENTS FOR THE STIMULATION OF BIOGENIC GAS GENERATION IN DEPOSITS OF CARBONACEOUS MATERIALS” (LUCA Technologies, Inc., priority 2009, published 2010):

How the values were obtained:
[1] = tested on: coal samples from the Powder River Basin in Wyoming; experiment: biogenic methane generation from coal samples after surfactant amendment; set-up: species or system microbial consortia present in coal and associated waters; details: after more than 100 days; headspace methane by gas chromatograph; surfactants tested at 0.05 to 0.5 g/L; 2.5 gram coal, 15 mL formation water
Experimental: (§1) Experiments were conducted to compare biogenic methane generation from coal samples after introducing an amendment of a surfactant. For each experiment, methane generation from coal samples from the Powder River Basin in Wyoming and shale samples from the Antrim Shale in Michigan was periodically measured over the course of more than 100 days. Each 2.5 gram coal sample or 5 g shale sample was placed in a 30 ml serum bottle with 15 mL of water that was also taken from the formation. The coal or shale and formation water were placed in the serum bottle while working in an anaerobic glove bag. The headspace in the bottle above the sample was flushed with a mixture of N2 and CO2 (95/5).
(§2) Amendments were then added to the samples. Surfactants were tested at concentrations of 0.05 to 0.5 g/L. Surfactants were tested alone and in combination with other amendments, including proteins (e.g., yeast extract), phosphate and acetate. The samples were then sealed, removed from the glove bag, and stored at a temperature close to the in situ temperature for the coal or shale samples over the course of the experiments.
(§3) The methane levels in the headspace above the samples was periodically measured and recorded. The methane was measured by running samples of the headspace gases through a gas chromatograph equipped with a thermal conductivity detector.

[2] = tested on: shale samples from the Antrim Shale in Michigan; experiment: biogenic methane generation from shale samples after surfactant amendment; set-up: species or system microbial consortia present in shale and associated waters; details: after more than 100 days; headspace methane by gas chromatograph; surfactants tested at 0.05 to 0.5 g/L; 5 g shale, 15 mL formation water
Experimental: as §1, §2, §3

Row | Compound | methane production in coal containing bottles [1] | methane production in shale containing bottles [2]
1 | CCCCOCCO [2-butoxyethanol] | highest levels of methane production | highest levels of methane production
2 | CCCCCCCC/C=C\CCCCCCCC(=O)N(C)CCS(=O)(=O)[O-].[Na+] [Geropon T-77] | highest levels of methane production | 
3 | Benzalkonium chloride | highest levels of methane production | 
